In general, AC50 refers to the midpoint of the concentration-response curve, whichever way the signal moves.

Activity calls are given as the source filed them.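 Rule for the calls: active = parasite count per well reduced by over 3 SD from the mean, with host cell number above 80% of untreated; inactive = the rest.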

The assay deals with L. donovani amastigotes in THP-1 macrophages, DAPI imaging, 72 h. In words: antileishmanial activity in infected macrophages – imaging, THP-1 host macrophages, single concentration (AID 977614).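 Note: signal is the parasite per host cell ratio from DAPI stained kinetoplasts and nuclei.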

Regarding `CCS(=O)(=O)N1[C@H](CO)[C@H](c2ccccc2)[C@@H]1CN(C)Cc1ccccn1`, the AC50 was > 10 µM (inactive).
The same measure for `C[C@@H]1CN([C@@H](C)CO)C(=O)CCCn2nncc2CO[C@@H]1CN(C)Cc1ccccc1C(=O)O`: > 10 µM (inactive).
The same measure for `O=C(CN1CCOCC1)N1[C@H](CO)[C@H]2c3ccccc3NC[C@H]21`: > 10 µM (inactive); for `CC(=O)N1[C@H](CO)[C@@H]2c3ccccc3N(S(=O)(=O)c3ccccc3C)C[C@@H]21`: > 10 µM (inactive).
As for `C[C@H]1CN([C@@H](C)CO)C(=O)CCCn2nncc2CO[C@H]1CN(C)Cc1cccc(C(F)(F)F)c1`, the AC50 was > 10 µM (inactive).
With `O=C(Cc1ccccc1)N1C[C@@H]2[C@H](c3ccccc31)[C@H](CO)N2S(=O)(=O)c1ccccc1` the figure was > 10 µM (inactive); with `C[C@@H]1CN([C@H](C)CO)C(=O)CCCn2nncc2CO[C@@H]1CN(C)Cc1ccc(C(=O)Nc2ccccc2N)cc1`, > 10 µM (inactive).
The same measure for `O=C(CC1CC1)NC[C@H]1N[C@H](CO)[C@@H]1c1ccc(-c2ccc(F)cc2)cc1`: > 10 µM (inactive); for `CN1C[C@H]2[C@@H](c3ccccc31)[C@@H](CO)N2Cc1ccccc1Cl`: > 10 µM (inactive); for `O=C(C1CCC1)N1C[C@@H]2[C@H](c3ccccc31)[C@@H](CO)N2C(=O)Nc1cccc(F)c1`: > 10 µM (inactive).
The same measure for `OC[C@H]1[C@@H]2c3ccccc3NC[C@@H]2N1Cc1cccnc1`: > 10 µM (inactive); for `Cc1noc(C)c1S(=O)(=O)N(C)C[C@H]1OCc2cnnn2CCCC(=O)N([C@H](C)CO)C[C@@H]1C`: > 10 µM (inactive); for `O=C(Cc1cccnc1)N1[C@@H](CO)[C@H](c2ccccc2)[C@@H]1CNCC1CCC1`: > 10 µM (inactive).
On to `C[C@@H]1CN([C@@H](C)CO)C(=O)CCCn2nncc2CO[C@@H]1CN(C)C(=O)Nc1ccccc1C(F)(F)F`, for which the AC50 was > 10 µM (inactive).
With `COCC(=O)N(C[C@@H]1[C@@H](c2ccccc2)[C@H](CO)N1C(=O)NC(C)C)C(C)C` the figure was > 10 µM (inactive); with `CCC(=O)N1[C@@H](CO)[C@@H]2c3ccccc3N(C(=O)c3cnccn3)C[C@@H]21`, > 10 µM (inactive); with `CCN(C[C@H]1[C@H](c2ccccc2)[C@@H](CO)N1C(=O)COC)S(C)(=O)=O`, > 10 µM (inactive).
With `CCCNC(=O)N1[C@@H](CO)[C@@H]2c3ccccc3N(C(=O)Nc3cccc(Cl)c3)C[C@@H]21` the figure was > 10 µM (inactive).
The same measure for `CCN(C[C@@H]1[C@@H](c2ccccc2)[C@@H](CO)N1C(C)=O)C(=O)NC1CCCC1`: > 10 µM (inactive); for `O=C(NC[C@H]1[C@H](c2ccccc2)[C@H](CO)N1Cc1cccnc1)c1ccccn1`: > 10 µM (inactive).
`CN1C[C@H]2[C@@H](c3ccccc31)[C@@H](CO)N2C(=O)c1cccnc1`: the AC50 was > 10 µM (inactive).
With `CN(C[C@@H]1N[C@H](CO)[C@@H]1c1ccc(C#CCC2CCCC2)cc1)S(C)(=O)=O` the figure was > 10 µM (inactive); with `CCc1csc(N2[C@H](CO)[C@H](c3ccccc3)[C@@H]2CNC)n1`, > 10 µM (inactive).
With `C[C@H](CO)N1C[C@H](C)[C@@H](CN(C)C(=O)CCC(F)(F)F)OCc2cn(nn2)CCCC1=O` the figure was > 10 µM (inactive).
In the case of `Cc1cccc(S(=O)(=O)N2C[C@@H]3[C@H](c4ccccc42)[C@H](CO)N3CC2CCCC2)c1`, the AC50 is > 10 µM (inactive).
Turning to `O=C(NC[C@@H]1[C@H](c2ccccc2)[C@@H](CO)N1C(=O)Cc1ccncc1)C1CCC1`, the AC50 is > 10 µM (inactive).
With `CCC(=O)NC[C@@H]1[C@@H](c2ccc(-c3ccc(F)cc3)cc2)[C@@H](CO)N1C(=O)CC` the figure was > 10 µM (inactive).
With `C/C=C/c1ccc([C@H]2[C@@H](CNC(C)C)N(C(=O)c3ccccn3)[C@H]2CO)cc1` the figure was > 10 µM (inactive); with `CN(C[C@H]1[C@H](c2ccccc2)[C@@H](CO)N1CC1CC1)C(=O)c1ccc(F)cc1`, > 10 µM (inactive); with `C/C=C/c1ccc([C@@H]2[C@@H](CN(C)C(C)=O)N(C(=O)NC(C)C)[C@H]2CO)cc1`, > 10 µM (inactive).
On to `CCCN1[C@H](CO)[C@H](c2ccc(-c3ccccc3F)cc2)[C@@H]1CNC(=O)C1CCC1`, for which the AC50 was > 10 µM (inactive).
With `C/C=C/c1ccc([C@H]2[C@@H](CO)N(CC3CCCC3)[C@H]2CNS(C)(=O)=O)cc1` the figure was > 10 µM (inactive).
The same measure for `CN(C[C@@H]1N[C@H](CO)[C@H]1c1ccccc1)C(=O)c1ccccn1`: > 10 µM (inactive); for `O=S(=O)(NC[C@@H]1[C@@H](c2ccccc2)[C@H](CO)N1CC1CC1)c1ccccc1`: > 10 µM (inactive); for `CCCNC(=O)N1C[C@@H]2[C@H](c3ccccc31)[C@H](CO)N2C(=O)Nc1ccccc1F`: > 10 µM (inactive).
The same measure for `C/C=C/c1ccc([C@H]2[C@@H](CNC(C)=O)N(C(=O)Cc3ccncc3)[C@H]2CO)cc1`: > 10 µM (inactive).
Regarding `O=C(c1ccncc1)N1C[C@H]2[C@@H](c3ccccc31)[C@H](CO)N2C(=O)CN1CCOCC1`, the AC50 was > 10 µM (inactive).
The same measure for `O=C(C1CCOCC1)N1C[C@@H]2[C@H](c3ccccc31)[C@H](CO)N2C(=O)Cc1ccccn1`: > 10 µM (inactive).
With `C[C@@H]1CN([C@@H](C)CO)C(=O)CCCn2cc(nn2)CO[C@H]1CN(C)C(=O)Nc1cccc2ccccc12` the figure was > 10 µM (inactive).
As to `CCN(C[C@H]1[C@H](c2ccc(C3=CCCCC3)cc2)[C@H](CO)N1CC1CC1)C(C)=O`, the AC50 is > 10 µM (inactive).
The same measure for `COc1ccc(NC(=O)N(C)C[C@@H]2OCc3cnnn3CCCC(=O)N([C@@H](C)CO)C[C@H]2C)c(OC)c1`: > 10 µM (inactive); for `CN(C[C@H]1[C@@H](c2ccc(C3=CCCC3)cc2)[C@@H](CO)N1CCC(F)(F)F)S(C)(=O)=O`: > 10 µM (inactive); for `O=C(C1CCOCC1)N1C[C@@H]2[C@H](c3ccccc31)[C@@H](CO)N2C(=O)Cc1ccccn1`: > 10 µM (inactive).
With `CN(C[C@H]1[C@@H](c2ccccc2)[C@@H](CO)N1Cc1ccccn1)S(C)(=O)=O` the figure was > 10 µM (inactive).
In the case of `O=C(Nc1ccc(F)cc1)N1C[C@H]2[C@@H](c3ccccc31)[C@H](CO)N2C(=O)c1ccncc1`, the AC50 was > 10 µM (inactive).
The same measure for `C[C@H](CO)N1C[C@H](C)[C@@H](CN(C)C(=O)Nc2ccc3c(c2)OCO3)OCc2cn(nn2)CCCC1=O`: > 10 µM (inactive).
The same measure for `O=C(C1CCC1)N1C[C@H]2[C@@H](c3ccccc31)[C@@H](CO)N2C(=O)Nc1cccc(F)c1`: > 10 µM (inactive).
Regarding `CC(C)N(C[C@@H]1N[C@@H](CO)[C@@H]1c1ccccc1)S(=O)(=O)c1ccccc1`, the AC50 was > 10 µM (inactive).
Consider `Cc1noc(C)c1NC(=O)N(C)C[C@H]1OCc2cn(nn2)CCCC(=O)N([C@@H](C)CO)C[C@H]1C`, for which the AC50 is > 10 µM (inactive).
With `C[C@@H]1CN([C@H](C)CO)C(=O)CCCn2cc(nn2)CO[C@@H]1CN(C)C(=O)c1ccc(N2CCN(C)CC2)cc1` the figure was > 10 µM (inactive).

The record behind these values is PubChem BioAssay AID977614 (Broad Institute, 2014).
